Results on 7 compounds are retold here after patent US10683272B2 (THE JOHNS HOPKINS UNIVERSITY, priority 2014, dated 2020).

pKi: −log10 of the molar value. Read-outs that look alike come from different tables or passages of the source. Where a SMILES comes first, the peptide text is derived from it. [ ]: non-standard residue; d: D form. The star is where a group is joined. ξ: configuration not given here. X1 = O=C(O)CC[C@H](NC(=O)N[C@@H](CCCCNC(=O)CCCCCCC(=O)*)C(=O)O)C(=O)O; DOTA = O=C(O)CN1CCN(CC(=O)O)CCN(CC(=O)*)CCN(CC(=O)O)CC1; ξF = NC(Cc1ccccc1)C(=O)O

The target of one series is PSMA (Homo sapiens, UniProt Q04609). The series can be described thus: PSMA inhibitory activities, fluorescence-based assay (Example 3). Type of series: biochemical. The protocol: PSMA inhibitory activities were determined using a fluorescence-based assay (Banerjee, Pullambhatla, Byun, et al., 2011). Enzyme inhibitory constants (Ki values) were generated using the Cheng-Prusoff conversion (Cheng and Prusoff, 1973). Sub-lines of the androgen independent PC-3 human prostate cancer xenograft were used (Banerjee, Pullambhatla, Byun, et al., 2011). Those sub-lines have been modified to express high (PC-3 PIP) or naturally produce low (PC-3 flu) levels of PSMA (Dr. Warren Heston, Cleveland Clinic, Cleveland, Ohio).
Chain of PSMA (Q04609 whole entry): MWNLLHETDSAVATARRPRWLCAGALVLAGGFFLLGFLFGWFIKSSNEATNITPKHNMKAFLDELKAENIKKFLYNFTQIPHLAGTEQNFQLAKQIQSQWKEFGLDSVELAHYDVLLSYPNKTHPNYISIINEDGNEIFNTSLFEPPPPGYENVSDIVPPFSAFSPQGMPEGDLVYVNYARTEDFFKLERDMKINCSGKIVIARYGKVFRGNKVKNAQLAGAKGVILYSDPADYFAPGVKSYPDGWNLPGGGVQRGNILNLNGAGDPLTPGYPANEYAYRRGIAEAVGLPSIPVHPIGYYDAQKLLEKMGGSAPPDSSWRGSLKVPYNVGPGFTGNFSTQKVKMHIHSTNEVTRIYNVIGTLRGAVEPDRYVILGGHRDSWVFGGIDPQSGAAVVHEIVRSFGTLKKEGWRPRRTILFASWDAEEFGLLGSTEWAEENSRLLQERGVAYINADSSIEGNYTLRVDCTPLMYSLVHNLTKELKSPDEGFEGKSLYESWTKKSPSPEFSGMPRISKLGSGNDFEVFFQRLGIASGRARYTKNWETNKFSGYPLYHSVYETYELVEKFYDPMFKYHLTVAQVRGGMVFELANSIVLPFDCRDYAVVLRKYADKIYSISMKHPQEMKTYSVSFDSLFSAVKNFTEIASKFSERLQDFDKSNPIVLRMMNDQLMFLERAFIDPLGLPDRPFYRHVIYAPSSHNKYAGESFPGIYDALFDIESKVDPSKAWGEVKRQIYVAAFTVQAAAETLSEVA

Series [1] relates to PC-3 PIP and PC-3 flu tumors.

On to `O=C(O)CC[C@H](NC(=O)N[C@@H](CCCCNC(=O)CCCCCCC(=O)NCCCCNC(=S)Nc1ccc(CC2CN(CC(=O)O)CCN(CC(=O)O)CCN(CC(=O)O)CCN2CC(=O)O)cc1)C(=O)O)C(=O)O` (stereo partly drawn) [Compound 6, (21S,25S)-8,15,23-trioxo-1-((4-((1,4,7,10-tetrakis(carboxymethyl)-1,4,7,10-tetraazacyclododecan-2-yl)methyl)phenyl)amino)-1-thioxo-2,7,16,22,24-pentaazaheptacosane-21,25,27-tricarboxylic acid], for which the pKi on PSMA is 8.74.

In the case of `O=C([O-])CN1CCN(CC(=O)O)CCN(CC(=O)[O-])CC(Cc2ccc(NC(=S)NCCCCNC(=O)CCCCCCC(=O)NCCCC[C@H](NC(=O)N[C@@H](CCC(=O)O)C(=O)O)C(=O)O)cc2)N(CC(=O)[O-])CC1.[Y+3]` (stereo partly shown) [^89Y-6], the pKi at PSMA was 8.52.

For the compound `NC(=O)CN1CCN(CC(N)=O)CCN(CC(N)=O)C(Cc2ccc(NC(=S)NCCCCNC(=O)CCCCCCC(=O)NCCCC[C@H](NC(=O)N[C@@H](CCC(=O)O)C(=O)O)C(=O)O)cc2)CN(CC(N)=O)CC1.[203Pb+2]` (stereo partly shown) [^203Pb-SR-IX-11], in series [1] (2 H), the PIP/flu ratio turned out to be 114; the “Tissue biodistribution, Blood” value is on record as 0.07 ± 0.01; the “Tissue biodistribution, PC-3 PIP” value worked out at 21.64 ± 1.23; the “Tissue biodistribution, PC-3 flu” value is on record as 0.19 ± 0.04. Moreover, in series [1] (2 H), the “Tissue biodistribution, Sm intestine” value worked out at 0.25 ± 0.15; the “Tissue biodistribution, bladder” value worked out at 8.64 ± 0.77; the “Tissue biodistribution, fat” value is reported as 1.54 ± 1.64; the “Tissue biodistribution, heart” value is recorded as 0.07 ± 0.01. Moreover, in series [1] (2 H), the “Tissue biodistribution, kidney” value is reported as 3.61 ± 0.81; the “Tissue biodistribution, liver” value was 0.21 ± 0.01; the “Tissue biodistribution, lung” value is recorded as 0.24 ± 0.03; the “Tissue biodistribution, muscle” value stood at 0.78 ± 0.83. Moreover, in series [1] (2 H), the “Tissue biodistribution, pancreas” value turned out to be 0.06 ± 0.00; the “Tissue biodistribution, salivary gland” value was 0.35 ± 0.10; the “Tissue biodistribution, spleen” value is 0.25 ± 0.1; the “Tissue biodistribution, stomach” value is 0.12 ± 0.00.

Compound `O=C([O-])CN1CCN(CC(=O)[O-])CCN(CC(=O)NC(Cc2ccccc2)C(=O)NC(Cc2ccccc2)C(=O)N[C@@H](CCCCNC(=O)CCCCCCC(=O)NCCCC[C@H](NC(=O)N[C@@H](CCC(=O)O)C(=O)O)C(=O)O)C(=O)O)CCN(CC(=O)[O-])CC1.[Y+3]` (stereo partly shown) [^89Y-4] showed a pKi on PSMA of 9.44.

With `O=C(O)CC[C@H](NC(=O)N[C@@H](CCCCNC(=O)CCCCCCC(=O)NCCCCNC(=S)Nc1ccc(CC2CN(CC(=O)O)CCN(CC(=O)O)CCN(CC(=O)O)CCN2CC(=O)O)cc1)C(=O)O)C(=O)O.[203Pb+2]` (stereo partly shown) [^203Pb-SR-VI-71], in series [1] (1 H), the PIP/flu ratio came out at 98; the “Tissue biodistribution, Blood” value was 0.60 ± 0.05; the “Tissue biodistribution, PC-3 PIP” value turned out to be 41.88 ± 7.60; the “Tissue biodistribution, PC-3 flu” value was 0.43 ± 0.11. For the same compound, in series [1] (1 H), the “Tissue biodistribution, Sm intestine” value is given as 0.31 ± 0.05; the “Tissue biodistribution, bladder” value was 5.96 ± 2.24; the “Tissue biodistribution, fat” value is given as 0.77 ± 0.29; the “Tissue biodistribution, heart” value amounted to 0.30 ± 0.03. In series [1] (1 H), the “Tissue biodistribution, kidney” value was 75.18 ± 9.94; the “Tissue biodistribution, liver” value came out at 1.09 ± 0.07; the “Tissue biodistribution, lung” value is 1.20 ± 0.19; the “Tissue biodistribution, muscle” value came out at 0.22 ± 0.14. Also, in series [1] (1 H), the “Tissue biodistribution, pancreas” value is 0.49 ± 0.09; the “Tissue biodistribution, salivary gland” value was determined as 1.78 ± 0.69; the “Tissue biodistribution, spleen” value is given as 5.07 ± 1.68; the “Tissue biodistribution, stomach” value turned out to be 0.30 ± 0.04. For the same compound, in series [1] (2 H), the PIP/flu ratio turned out to be 130; the “Tissue biodistribution, Blood” value came out at 0.31 ± 0.04; the “Tissue biodistribution, PC-3 PIP” value is given as 38.14 ± 6.30; the “Tissue biodistribution, PC-3 flu” value came to 0.29 ± 0.14. In addition, in series [1] (2 H), the “Tissue biodistribution, Sm intestine” value stood at 0.23 ± 0.04; the “Tissue biodistribution, bladder” value is listed as 10.40 ± 3.21; the “Tissue biodistribution, fat” value was found to be 0.31 ± 0.22; the “Tissue biodistribution, heart” value is recorded as 0.14 ± 0.06. Moreover, in series [1] (2 H), the “Tissue biodistribution, kidney” value turned out to be 39.35 ± 7.28; the “Tissue biodistribution, liver” value amounted to 1.01 ± 0.21; the “Tissue biodistribution, lung” value worked out at 0.64 ± 0.14; the “Tissue biodistribution, muscle” value is 0.22 ± 0.07. In addition, in series [1] (2 H), the “Tissue biodistribution, pancreas” value stood at 0.29 ± 0.05; the “Tissue biodistribution, salivary gland” value is listed as 0.93 ± 0.07; the “Tissue biodistribution, spleen” value is given as 1.59 ± 0.58; the “Tissue biodistribution, stomach” value is 0.15 ± 0.03. In addition, in series [1] (4 H), the PIP/flu ratio is on record as 178; the “Tissue biodistribution, Blood” value was found to be 0.24 ± 0.02; the “Tissue biodistribution, PC-3 PIP” value is 34.74 ± 7.37; the “Tissue biodistribution, PC-3 flu” value is 0.20 ± 0.06. Moreover, in series [1] (4 H), the “Tissue biodistribution, Sm intestine” value was 0.15 ± 0.04; the “Tissue biodistribution, bladder” value is recorded as 1.94 ± 0.49; the “Tissue biodistribution, fat” value is on record as 0.31 ± 0.18; the “Tissue biodistribution, heart” value stood at 0.09 ± 0.01. Besides, in series [1] (4 H), the “Tissue biodistribution, kidney” value is listed as 22.75 ± 6.22; the “Tissue biodistribution, liver” value came to 0.92 ± 0.09; the “Tissue biodistribution, lung” value came to 0.28 ± 0.04; the “Tissue biodistribution, muscle” value is recorded as 0.06 ± 0.02. Further, in series [1] (4 H), the “Tissue biodistribution, pancreas” value stood at 0.24 ± 0.05; the “Tissue biodistribution, salivary gland” value is 0.29 ± 0.02; the “Tissue biodistribution, spleen” value worked out at 0.72 ± 0.16; the “Tissue biodistribution, stomach” value was found to be 0.13 ± 0.03. In addition, in series [1] (24 H), the PIP/flu ratio is 194; the “Tissue biodistribution, Blood” value is given as 0.21 ± 0.02; the “Tissue biodistribution, PC-3 PIP” value came to 27.92 ± 7.01; the “Tissue biodistribution, PC-3 flu” value is listed as 0.14 ± 0.01. In series [1] (24 H), the “Tissue biodistribution, Sm intestine” value is 0.04 ± 0.03; the “Tissue biodistribution, bladder” value was 0.31 ± 0.16; the “Tissue biodistribution, fat” value is recorded as 0.05 ± 0.06; the “Tissue biodistribution, heart” value was found to be 0.07 ± 0.01. Further, in series [1] (24 H), the “Tissue biodistribution, kidney” value worked out at 7.01 ± 0.80; the “Tissue biodistribution, liver” value is 0.64 ± 0.04; the “Tissue biodistribution, lung” value amounted to 0.16 ± 0.01; the “Tissue biodistribution, muscle” value came out at 0.04 ± 0.03. Also, in series [1] (24 H), the “Tissue biodistribution, pancreas” value was determined as 0.09 ± 0.06; the “Tissue biodistribution, salivary gland” value is recorded as 0.10 ± 0.05; the “Tissue biodistribution, spleen” value is recorded as 0.24 ± 0.02; the “Tissue biodistribution, stomach” value was determined as 0.07 ± 0.01.

On PSMA, `O=C(O)CC[C@H](NC(=O)N[C@@H](CCCCNC(=O)CCCCCCC(=O)NCCCC[C@H](NC(=O)C(Cc1ccccc1)NC(=O)C(Cc1ccccc1)NC(=O)C(Cc1ccccc1)NC(=O)CN1CCN(CC(=O)O)CCN(CC(=O)O)CCN(CC(=O)O)CC1)C(=O)O)C(=O)O)C(=O)O` (stereo partly shown) [Compound 5] had a pKi of 8.51.

`O=C([O-])CN1CCN(CC(=O)[O-])CCN(CC(=O)NC(Cc2ccccc2)C(=O)NC(Cc2ccccc2)C(=O)NC(Cc2ccccc2)C(=O)N[C@@H](CCCCNC(=O)CCCCCCC(=O)NCCCC[C@H](NC(=O)N[C@@H](CCC(=O)O)C(=O)O)C(=O)O)C(=O)O)CCN(CC(=O)[O-])CC1.[Y+3]` (stereo partly shown) [^89Y-5] ({DOTA}-[ξF][ξF][ξF]K(X1)-OH) had a negative-log Ki (pKi) at PSMA of 10.00.
